Tested on: 922993-354-T-J3-PDC complex spheroids, viability
Assay: Anticancer human tumor 922993-354-T-J3-PDC patient-derived endometrial carcinoma cell line growth inhibition [GQUAD]
Settings: for IC50: curve of first compound; for viability, T/C: stronger effect = lower value
Procedure, shortened: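 Viability of tumor cells grown as complex spheroids with endothelial and stromal cells, exposed to drug combinations. Top concentration at or near clinical Cmax (else 10 microM), diluted in half-log increments.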

[1] = second compound 0.0316 µM, first compound 0.0316 µM
[2] = second compound 0.0316 µM, first compound 0.316 µM
[3] = second compound 0.1 µM, first compound 0.0316 µM
[4] = second compound 0.1 µM, first compound 0.316 µM
[5] = second compound 0.316 µM, first compound 0.0316 µM
[6] = second compound 0.316 µM, first compound 0.316 µM
[7] = second compound 1 µM, first compound 0.0316 µM
[8] = second compound 1 µM, first compound 0.316 µM
[9] = second compound 3.16 µM, first compound 0.0316 µM
[10] = second compound 3.16 µM, first compound 0.316 µM
[11] = second compound 10 µM, first compound 0.0316 µM
[12] = second compound 10 µM, first compound 0.316 µM
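Note: spheroids exposed to compounds for seven days.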
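Throughout, for viability, T/C: 100% = DMSO vehicle control viability.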

## Cc1[nH]c2ccccc2c1CCNCc1ccc(/C=C/C(=O)NO)cc1 + Cc1[nH]c2ccc(F)cc2c1-c1nc2c3cccnc3c3ncccc3c2[nH]1
Second compound 0.0316 µM
  IC50: > 0.316 µM
Second compound 0.1 µM
  IC50: > 0.316 µM
Second compound 0.316 µM
  IC50: > 0.316 µM
Second compound 1 µM
  IC50: > 0.316 µM
Second compound 3.16 µM
  IC50: > 0.316 µM
Second compound 10 µM
  IC50: > 0.316 µM
Second compound 0.0316 µM, first compound 0.000999 µM
  viability, T/C: 95.9%
Second compound 0.0316 µM, first compound 0.00316 µM
  viability, T/C: 87%
Second compound 0.0316 µM, first compound 0.00999 µM
  viability, T/C: 100%
[1]
  viability, T/C: 77.6%
Second compound 0.0316 µM, first compound 0.0999 µM
  viability, T/C: 75.6%
[2]
  viability, T/C: 61.3%
Second compound 0.1 µM, first compound 0.000999 µM
  viability, T/C: 94.1%
Second compound 0.1 µM, first compound 0.00316 µM
  viability, T/C: 100%
Second compound 0.1 µM, first compound 0.00999 µM
  viability, T/C: 85.3%
[3]
  viability, T/C: 83.3%
Second compound 0.1 µM, first compound 0.0999 µM
  viability, T/C: 79.3%
[4]
  viability, T/C: 55.8%
Second compound 0.316 µM, first compound 0.000999 µM
  viability, T/C: 96.2%
Second compound 0.316 µM, first compound 0.00316 µM
  viability, T/C: 93.5%
Second compound 0.316 µM, first compound 0.00999 µM
  viability, T/C: 91%
[5]
  viability, T/C: 81.2%
Second compound 0.316 µM, first compound 0.0999 µM
  viability, T/C: 88.3%
[6]
  viability, T/C: 66.9%
Second compound 1 µM, first compound 0.000999 µM
  viability, T/C: 96.3%
Second compound 1 µM, first compound 0.00316 µM
  viability, T/C: 92.2%
Second compound 1 µM, first compound 0.00999 µM
  viability, T/C: 115%
[7]
  viability, T/C: 84%
Second compound 1 µM, first compound 0.0999 µM
  viability, T/C: 100%
[8]
  viability, T/C: 50.6%
Second compound 3.16 µM, first compound 0.000999 µM
  viability, T/C: 93.5%
Second compound 3.16 µM, first compound 0.00316 µM
  viability, T/C: 80.6%
Second compound 3.16 µM, first compound 0.00999 µM
  viability, T/C: 80%
[9]
  viability, T/C: 79.1%
Second compound 3.16 µM, first compound 0.0999 µM
  viability, T/C: 95.4%
[10]
  viability, T/C: 71.8%
Second compound 10 µM, first compound 0.000999 µM
  viability, T/C: 82.6%
Second compound 10 µM, first compound 0.00316 µM
  viability, T/C: 109%
Second compound 10 µM, first compound 0.00999 µM
  viability, T/C: 88.2%
[11]
  viability, T/C: 82.8%
Second compound 10 µM, first compound 0.0999 µM
  viability, T/C: 112%
[12]
  viability, T/C: 70.3%

## CCCS(=O)(=O)Nc1ccc(F)c(C(=O)c2c[nH]c3ncc(-c4ccc(Cl)cc4)cc23)c1F + Cc1[nH]c2ccc(F)cc2c1-c1nc2c3cccnc3c3ncccc3c2[nH]1
Second compound 0.0316 µM
  IC50: > 10 µM
Second compound 0.1 µM
  IC50: > 10 µM
Second compound 0.316 µM
  IC50: > 10 µM
Second compound 1 µM
  IC50: > 10 µM
Second compound 3.16 µM
  IC50: > 10 µM
Second compound 10 µM
  IC50: > 10 µM
[1]
  viability, T/C: 113%
Second compound 0.0316 µM, first compound 0.1 µM
  viability, T/C: 101%
[2]
  viability, T/C: 78.5%
Second compound 0.0316 µM, first compound 1 µM
  viability, T/C: 69.4%
Second compound 0.0316 µM, first compound 3.16 µM
  viability, T/C: 77.3%
Second compound 0.0316 µM, first compound 10 µM
  viability, T/C: 68.4%
[3]
  viability, T/C: 119%
Second compound 0.1 µM, first compound 0.1 µM
  viability, T/C: 99.2%
[4]
  viability, T/C: 75.7%
Second compound 0.1 µM, first compound 1 µM
  viability, T/C: 81.2%
Second compound 0.1 µM, first compound 3.16 µM
  viability, T/C: 76.9%
Second compound 0.1 µM, first compound 10 µM
  viability, T/C: 57.1%
[5]
  viability, T/C: 101%
Second compound 0.316 µM, first compound 0.1 µM
  viability, T/C: 82.4%
[6]
  viability, T/C: 81.5%
Second compound 0.316 µM, first compound 1 µM
  viability, T/C: 77.2%
Second compound 0.316 µM, first compound 3.16 µM
  viability, T/C: 78.2%
Second compound 0.316 µM, first compound 10 µM
  viability, T/C: 56.2%
[7]
  viability, T/C: 93%
Second compound 1 µM, first compound 0.1 µM
  viability, T/C: 83.5%
[8]
  viability, T/C: 61.9%
Second compound 1 µM, first compound 1 µM
  viability, T/C: 92.9%
Second compound 1 µM, first compound 3.16 µM
  viability, T/C: 82%
Second compound 1 µM, first compound 10 µM
  viability, T/C: 56.7%
[9]
  viability, T/C: 91.2%
Second compound 3.16 µM, first compound 0.1 µM
  viability, T/C: 98.6%
[10]
  viability, T/C: 82.5%
Second compound 3.16 µM, first compound 1 µM
  viability, T/C: 87.5%
Second compound 3.16 µM, first compound 3.16 µM
  viability, T/C: 76.4%
Second compound 3.16 µM, first compound 10 µM
  viability, T/C: 60.9%
[11]
  viability, T/C: 96.9%
Second compound 10 µM, first compound 0.1 µM
  viability, T/C: 99.7%
[12]
  viability, T/C: 85.4%
Second compound 10 µM, first compound 1 µM
  viability, T/C: 81.4%
Second compound 10 µM, first compound 3.16 µM
  viability, T/C: 76.9%
Second compound 10 µM, first compound 10 µM
  viability, T/C: 64%
